Experimental data taken from paper PMC6527858, “FABP1 controls hepatic transport and biotransformation of Δ^9-THC” (Scientific Reports, 2019).
Like-named read-outs stand apart in the source and are kept apart here.

Key:
human FABP1 [1] = biological target: T1, human FABP1 (Homo sapiens, UniProt P07148); assay: DAUDA fluorescence displacement binding assay; settings: for maximal displacement of the fluorescent probe DAUDA: maximal effect in the tested concentration range
T1 construct: His tag (N); host or cells: BL21(DE3) Escherichia coli
T1 sequence (P07148 1-127): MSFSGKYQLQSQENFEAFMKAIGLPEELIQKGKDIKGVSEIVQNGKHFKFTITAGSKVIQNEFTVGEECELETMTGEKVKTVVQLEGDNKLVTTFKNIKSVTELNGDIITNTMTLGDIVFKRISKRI
Protocol: Human FABP1 in a pNIC28-Bsa4 vector was obtained from Addgene (plasmid #42344; Addgene, Cambridge, MA, USA). Following sequence verification the construct was transformed into BL21(DE3) Escherichia coli for expression. The recombinant FABP1 protein was purified by nickel-affinity chromatography as described previously. Residual endogenous bacterial lipids were stripped from the purified protein by incubation in a column of hydroxyalkoxypropyl-dextran (Sigma Chemical Co., St Louis, MO, USA) for 1 hour at 37 °C.
Binding assays were carried out in 96-well Costar® plates (Corning Life Science, Kennebunk, ME, USA). FABP1 (3 μM) was incubated with DAUDA (500 nM), in binding assay buffer (30 mM Tris-HCl, 100 mM NaCl, pH 7.6). Competitor test compounds (0.1–500 μM) were then introduced to the well, mixed, and the system was allowed to equilibrate for 20 minutes at 25 °C in the dark. All experimental conditions were tested in triplicate. […] Loss of fluorescence intensity was monitored with an F5 Filtermax Multi-Mode Microplate Reader (Molecular Devices, Sunnyvale, CA, USA) using excitation/emission wavelengths = 345/535 nm. Following background subtraction, raw fluorescence intensity values were normalized and fit to a one-site competition binding analysis using the Graphpad Prism software.

[2] = THC pharmacokinetics in wild-type and FABP1-KO mice (LC-MS/MS of brain and plasma); settings: THC 10 mg/kg i.p.; for AUC: 0-24 h
Protocol: The pharmacokinetics of THC were subsequently examined to determine whether FABP1 regulates THC biotransformation in vivo. Wild-type and FABP1-KO mice were administered a single dose of THC (10 mg/kg, i.p.) and blood plasma and brains were harvested at several time points during a 24-hour time course (0, 0.5, 1, 2, 3, 4, 6, 7, and 24 hours post-THC). Levels of THC and its major primary and secondary metabolites (11-OH-THC and THC-COOH) were subsequently quantified by LC-MS/MS.
Mice were administered THC (10 mg/kg, i.p.) and plasma and brain samples were collected at the following time points: 0, 0.5, 1, 2, 3, 4, 6, 7, 24 hours. Tissues were immediately placed on dry ice and stored at −80 °C until processing. The AUC from time 0 to 24 h was calculated by the trapezoidal rule.
The tissues were rapidly thawed, spiked with 25 μl deuterated internal standard solution (containing THC-d3, 11-OH-THC-d3, and THC-COOH-d3; 5 ng/mL each, in methanol) (Cerillient Corporation, Round Rock, TX, USA) and homogenized on ice in Tris, pH 8.0. Protein precipitation was performed by adding two volumes ice-cold acetonitrile drop-wise while vortexing, centrifuged at 10,000 RCF for 10 minutes at 4 °C, and stored overnight at −20 °C to allow time for complete phase separation. The organic phase was transferred to a new glass tube and dried down under a steady stream of argon gas. The dried samples were resuspended in 100 μl 1:1 acetonitrile:ddH2O and submitted to the Stony Brook Proteomics Center for LC-MS/MS quantification of THC and THC metabolites.

human FABP1 [3] = biological target: T1, human FABP1; assay: DAUDA probe saturation binding to FABP1 (probe Kd determination); settings: FABP1 1 μM, DAUDA 0–16 μM
Protocol: Recombinant human FABP1 (1 μM) was titrated with DAUDA (0–16 μM). The raw fluorescence intensity at each data point was corrected by subtracting the signal from each respective probe concentration in the absence of protein. Kd and Bmax were then calculated by fitting the titration curve to the single-site saturation binding equation [Y = Bmax*X/(Kd + X)] using the GraphPad Prism software (Prism version 7.0 for Mac OS: Graphpad software Incorporated, La Jolla, CA, USA).

[4] = test system: body temperature of wild-type and FABP1-KO mice; assay: THC-induced hypothermia (implanted iButton Thermocron core temperature); type: in vivo, mouse; settings: THC 10 mg/kg i.p.
Protocol: (§1) Hypothermia and spontaneous locomotor activity were assessed over a 12 hour period following a single intraperitoneal (i.p.) injection of 10 mg/kg THC or vehicle (1:1:18 DMSO:Cremophor-EL:saline) to naïve mice. This dose was selected because it produces submaximal cannabimimetic effects and potentiation of THC effects is unlikely to be hampered by a ceiling effect[33],[34]. All mice were kept on a 12/12 hour light/dark cycle and THC was administered immediately prior to the dark phase to control for circadian effects. […] Therefore, in the present study THC pharmacodynamics were independently assessed in mice of both genders.
Mice were anesthetized with an i.p. injection of a surgical mixture of ketamine (100 mg/kg) and xylazine (10 mg/kg). Thermocron iButton® (Dallas Semiconductor Company, Dallas, TX, USA) temperature data loggers were sterilized with 70% ethanol and surgically implanted into the abdominal cavities. The mice were permitted to recover from surgery for at least one week prior to being subjected to any experiments. The factory calibrated thermocrons were programmed to record temperature measurements every three minutes with 0.5 °C accuracy and 0.0625 °C precision.

[5] = test system: locomotor activity of wild-type and FABP1-KO mice; assay: Home-cage spontaneous locomotor activity (photobeam system); type: in vivo, mouse; settings: THC 10 mg/kg i.p., 12 hour period, both sexes
Protocol: as §1
Locomotor activity was measured by the home-cage photobeam activity system (San Diego Instruments, San Diego, CA, USA). In this system each mouse home-cage was surrounded by a 4 × 8 photobeam array that detected and recorded movements in the X and Y directions. The animals were first conditioned to the cages in the testing room for one week to avoid novelty induced changes in locomotor activity. THC or vehicle were injected 10 minutes prior to the onset of the dark cycle and motility data was recorded over the next 12 hour period.

[6] = mouse, plasma, ip, 10 mg/kg, AUC, FABP1-KO mice
[7] = mouse, plasma, ip, 10 mg/kg, AUC, wild-type mice
[8] = mouse, plasma, ip, 10 mg/kg, Cmax, FABP1-KO mice
[9] = mouse, plasma, ip, 10 mg/kg, Cmax, wild-type mice

SMILES | Ki (human FABP1 [1]) [µM] | Cmax ([2]; brain, FABP1-KO mice) [pmol/g] | AUC ([2]; brain, FABP1-KO mice) [pmol·h/g] | Cmax ([2]; brain, wild-type mice) [pmol/g] | AUC ([2]; brain, wild-type mice) [pmol·h/g] | AUC [2, 6] [ng·h/mL] | AUC [2, 7] [ng·h/mL] | Cmax [2, 8] [ng/mL] | Cmax [2, 9] [ng/mL] | maximal displacement of the fluorescent probe DAUDA (human FABP1 [1]) | also measured
CCCCCc1cc(O)c2c(c1)OC(C)(C)C1CCC(C(=O)O)=CC21 (stereo not shown) [THC-COOH, 11-nor-9-carboxy-Δ^9-tetrahydrocannabinol] | 11.2 ± 0.7 | 50.02 ± 3.16 | 522.6 ± 194.4 | 58.33 ± 1.21 | 362.8 ± 36.94 | 544 ± 21.2 | 506 ± 51.4 | 78.7 ± 2.26 | 87.1 ± 5.21 |  | M/P: metabolite to parent (THC) ratio (AUCm/AUCp) ([2]; brain, FABP1-KO mice): 0.071; lower THC-COOH/THC ratio (AUCTHC-COOH/AUCTHC) in FABP1-KO brains vs WT ([2]; brain): 3–4 fold; ∆tmax (later maximal level in FABP1-KO brain vs WT) ([2]; brain): 4 h; M/P: metabolite to parent (THC) ratio (AUCm/AUCp) ([2]; brain, wild-type mice): 0.251; M/P: metabolite to parent (THC) ratio (AUCm/AUCp) ([2]; plasma, FABP1-KO mice): 0.0215; M/P: metabolite to parent (THC) ratio (AUCm/AUCp) ([2]; plasma, wild-type mice): 0.0440
CCCCCCCC/C=C\CCCCCCCC(=O)O [oleic acid] |  |  |  |  |  |  |  |  |  |  | DAUDA displacement (human FABP1 [1]; at 10 µM): 96.5 ± 0.15 % displacement
CN(C)c1cccc2c(S(=O)(=O)NCCCCCCCCCCC(=O)O)cccc12 [DAUDA, 11-(Dansylamino)unadecanoic acid] |  |  |  |  |  |  |  |  |  |  | Kd (human FABP1 [3]): 1.07 ± 0.17 µM
CCCCCc1cc(O)c2c(c1)OC(C)(C)[C@@H]1CCC(C)=C[C@@H]21 [THC, ∆^9-tetrahydrocannabinol] | 2.93 ± 0.27 | 881.9 ± 574.1 | 7363 ± 949.0 | 531.0 ± 71.35 | 1446 ± 411.7 | 25200 ± 7330 | 11500 ± 2080 | 34800 ± 2000 | 13600 ± 2620 | ~50% | increase in the brain AUC, FABP1-KO compared to WT ([2]; brain): ~ 6 fold; maximum mean body temperature change ([4]; FABP1-KO females): −8.1 °C; maximum mean body temperature change ([4]; FABP1-KO males): −7.4 °C; maximum mean body temperature change ([4]; WT females): −4.8 °C; maximum mean body temperature change ([4]; WT males): −4.8 °C; effect on spontaneous home-cage motility [5]: significant decrease in overall motility
CCCCCc1cc(O)c2c(c1)OC(C)(C)C1CCC(CO)=CC21 (stereo not shown) [11-OH-THC, 11-hydroxy-Δ^9-tetrahydrocannabinol] | 7.12 ± 0.79 | 243.6 ± 114.3 | 1244 ± 314.6 | 484.4 ± 207.8 | 1327 ± 329.3 | 112 ± 18.4 | 59.4 ± 14.6 | 50.6 ± 11.8 | 29.5 ± 6.17 |  | time remaining at detectable levels longer in FABP1-KO than in wild-type ([2]; brain and plasma): 1 to 2 h; M/P: metabolite to parent (THC) ratio (AUCm/AUCp) ([2]; brain, FABP1-KO mice): 0.169; M/P: metabolite to parent (THC) ratio (AUCm/AUCp) ([2]; brain, wild-type mice): 0.918; M/P: metabolite to parent (THC) ratio (AUCm/AUCp) ([2]; plasma, FABP1-KO mice): 0.0044; M/P: metabolite to parent (THC) ratio (AUCm/AUCp) ([2]; plasma, wild-type mice): 0.0052
C=C(C)[C@@H]1CCC(C)=C[C@H]1c1c(O)cc(CCCCC)cc1O [CBD, cannabidiol] |  |  |  |  |  |  |  |  |  | ~50% | Ki (human FABP1 [1]; FABP1 3 μM, DAUDA 500 nM, 25 °C, 20 min, pH 7.6, read-out: Ki (DAUDA displacement from FABP1)): 3.95 ± 0.65 µM
CCCCCCCCCCCCCCCC(=O)NCCO [PEA, Palmitoylethanolamide] |  |  |  |  |  |  |  |  |  |  | remaining DAUDA fluorescence (human FABP1 [1]; at 50 µM): 101.8 ± 3.3 % fluorescence
CCCCCCC(C)(C)c1cc(O)c2c(c1)OC(C)(C)[C@@H]1CC=C(C(=O)O)C[C@@H]21 [AJA, ajulemic acid] | 26 ± 3.8 |  |  |  |  |  |  |  |  | fully displace DAUDA | 
